Test results: the NIST ThermoML archive (doi:10.1016/j.jct.2007.03.008)
± gives the expanded uncertainty stated by the source.

How the values were obtained:
[1] = refractive index (Na D-line) (dimensionless); conditions: 298.15 K; 101.33 kPa; Liquid; Standard Abbe refractometry
[2] = Liquid; for mass density: 101.33 kPa

| SMILES | refractive index [1] | mass density ([2]; 298.15 K) | vapor or sublimation pressure ([2]; 298.15 K) | vapor or sublimation pressure ([2]; 308.15 K) | vapor or sublimation pressure ([2]; 318.15 K) | mass density ([2]; 298.15 K, Vibrating tube method) |
| --- | --- | --- | --- | --- | --- | --- |
| ClCCCCl [1,3-dichloropropane] | 1.4459 ± 0.0007 | 1181.4 ± 0.3 kg/m3 | 2.75 ± 0.16 kPa | 4.48 ± 0.17 kPa | 6.87 ± 0.18 kPa | – |
| ClCCCCCl [1,4-dichlorobutane] | 1.4519 ± 0.0007 | 1132.8 ± 0.2 kg/m3 | 0.99 ± 0.16 kPa | 1.39 ± 0.16 kPa | 2.13 ± 0.16 kPa | – |
| CCCCCl [1-chlorobutane] | 1.3991 ± 0.0007 | – | 13.7 ± 0.4 kPa | 21.32 ± 0.44 kPa | 31.86 ± 0.51 kPa | 880.9 ± 0.1 kg/m3 |
| O=C1CCCC1 [cyclopentanone] | 1.4347 ± 0.0007 | 945.3 ± 0.2 kg/m3 | 1.71 ± 0.32 kPa | 2.8 ± 0.33 kPa | 4.4 ± 0.34 kPa | – |
